Values of other authors as cited in US12296348B2, “Electrostatic precipitator” (TECHNISCHE UNIVERSITÄT DORTMUND, priority 2019, dated 2025).

Details: solubility limited in terms of its bioavailability

- BCS classification: Class II
Structure (SMILES): COc1ccc2cc([C@H](C)C(=O)O)ccc2c1 [unprocessed naproxen, naproxen]
